Measurements as given in PMC7707092, “Discovery and characterization of ORM‐11372, a novel inhibitor of the sodium‐calcium exchanger with positive inotropic activity” (British Journal of Pharmacology, 2020).

Columns and labels:
[1] = system: human iPS cardiomyocyte action potentials; assay: Action potentials in spontaneously beating hiPSC cardiomyocytes (Cor.4U); type: cell-based; settings: 0.1 or 0.3 μM
Procedure: APs were recorded in spontaneously beating Cor.4U CMs in the current clamp using the perforated patch technique and voltage‐sensitive dye (di‐4‐ANEPPS), in a 96‐well plate format. The latter ratiometric optical measurements were performed on the CellOPTIQ platform at Clyde Biosciences (Newhouse, UK).
Effect of ORM-11372 (A: 0.1 µM; B: 0.3 µM) on human iPS cardiomyocyte action potentials. A left, Action potentials recorded in current-clamp at baseline (black trace), during exposure to ORM-11372 (red trace) and during wash off (grey trace). The dashed line denotes 0 mV. On the right is plotted, for the individual cardiomyocytes (n = 4), the action potential duration (APD) at 30, 50 and 90 % repolarisation in 0.1 µM ORM-11372 as the percentage of their baseline values. B, Action potentials and APDs recorded with voltage sensitive dye at baseline (black trace) and after 30 min treatment with either vehicle (0.1 % DMSO; blue trace and circles) or 0.3 µM ORM-11372 (red trace and squares). The APDs at 30, 50 and 90 % repolarisation […]
vehicle and ORM-11372 (*p<0.05 unpaired Student’s t-test).
(1 picture or pasted object on this page, not shown here)

[2] = target: T1, noradrenaline transporter (Rattus norvegicus, UniProt Q9WTR4); assay: [^3H]noradrenaline uptake into rat hypothalamus synaptosomes; type: biochemical
T1 construct: [^3H]noradrenaline incorporated into rat hypothalamus synaptosomes; from tissue; host or cells: rat hypothalamus synaptosomes
Procedure: (§1) Radioligand binding assays were performed at Eurofins Cerep SA (Celle L'Evescault, France), for testing the inhibition capacity of ORM‐11372 (at 10 μM with two replicates), in over 75 targets. These included receptors (e.g., human A1, A2A, and A3 adenosine receptors; α1 and α2 adrenoceptors; human β1–β3 adrenergic receptors; human D1, D2S, D3, D4.4, and D5 dopamine receptors; EGF and VEGF receptors; human M1–M5 muscarinic ACh receptors; human 5‐HT1A, 5‐HT2A, 5‐HT2B, 5‐HT2C, 5‐HT4e, 5‐HT5A, 5‐HT6, and 5‐HT7 receptors), ion channels (5‐HT3, Ca^2+, ATP‐dependent potassium channel [KATP], voltage‐dependent potassium channel [KV], small‐conductance calcium‐dependent potassium channel [SKCa], Na^+, and Cl^−), and transporters (adenosine, noradrenaline, dopamine, and 5‐HT). Follow‐up functional studies (with five concentrations and two replicates) were performed for 5‐HT2A receptors and noradrenaline transporter. Agonism and antagonism at h5‐HT2A receptors was explored in recombinant HEK 293 cells and intracellular calcium changes were detected using fluorimetry. Noradrenaline uptake was measured by carrying out scintillation counting of [^3H]noradrenaline incorporated into rat hypothalamus synaptosomes.

[3] = target: T2, 5‐HT2B receptor (Homo sapiens, UniProt P41595); assay: 5‐HT2B agonist and antagonist assay, intracellular calcium in CHO–5‐HT2B cells; type: cell-based
Excerpt: The hERG‐encoded voltage‐dependent potassium channel current (I hERG) cells to be studied were harvested with Detachin solution and either diluted with a volume of CHO cell serum‐free media (supplemented with 100 IU·ml^−1 of penicillin/streptomycin and 25‐mM HEPES) to obtain cells, for which the cell density was ~4 x10^6 cells·ml^−1, or plated on glass coverslips and used on the following 1–2 days. HEK 293 cells were transiently transfected using lipofectamine (Invitrogen, USA), with a human sodium voltage‐gated channel subunit 5 (hSCN5) A (transcript variant 2)‐containing plasmid, in Optimem medium. After a 5‐h incubation period, the transfection medium was replaced with the normal growth medium. The cells were harvested by trypsinization, centrifuged and resuspended in the appropriate extracellular solution for performing studies the next day. CHO–5‐HT2B cells were plated into 96‐well plates on the previous day, at a density of 4 x10^4 cells per well, with a modified version of the growth media.
Changes in the intracellular calcium concentration of CHO–5‐HT2B cells in the probenecid‐R inger were measured, using Fluo‐4 or calcium 3 dyes and the FLEXstation, at 37°C. […]

[4] = system: healthy rabbits; assay: Haemodynamics in anaesthetized rabbits; type: in vivo, rabbit; design: cardiac relaxation / HR / systolic BP: dose or concentration left out as unconfirmed
Procedure: All animals were given multiple ascending infusion doses of ORM‐11372; blinding was not possible. Systemic BP (SP) and left ventricular pressure (LVP) values were measured with pressure transducers (SP for femoral artery: Isotec, Hugo Sachs Elektronic, Germany; a miniature pressure transducer Mikro‐Tip transducer SPR‐249, Millar Instruments was inserted into the left ventricle via the right carotid artery). The signal was amplified (DC‐bridge amplifier type 660, Hugo Sachs Elektronik, Germany), digitized (I/O connector block type SCB‐68, National Instruments, USA), recorded, and analysed (IHME 1.0.9, Fision Ltd, Finland). Left ventricular inotropic effect (LV + dP/dt max), relaxation (LV − dP/dt min), and HR values were analysed from LVP signals.
Male New Zealand white rabbits (Harlan, Netherlands B.V.) were housed individually in polycarbonate cages (Scanbur Number 8 plastic cages with stainless steel door) with aspen bedding (Aspen Bricks M, Tapvei Ky, Kaavi, Finland). The acclimation period before experiments was at least 21 days. Rabbits weighing 2.0–2.3 kg (age 10–12 weeks) were used for haemodynamically assessing ORM‐11372 (no randomization, baseline values as own control). The diet provided to rabbits was SDS Stanrab (P) SQC pelleted (Special Diet Services Ltd, Witham, England). Water was provided ad libitum in polycarbonate bottles (750 ml).
Rabbits (n = 5) were sedated with i.v. (marginal vein) diazepam (2 mg·kg^−1, Diapam®, Orion Pharma). Anaesthesia was induced with i.v. S‐ketamine (10–20 mg·kg^−1 Ketanest‐S®, Pfizer) and maintained with S‐ketamine i.v. infusion (15–80 mg·kg^−1·h^−1). Animals were placed on a heating table (+38°C), and tracheas were cannulated. Rabbits were ventilated via a rodent ventilator (Ugo Basile 7025, Hugo Sachs Elektronik, Germany; respiratory volume 10 ml·kg^−1, 30 strokes·min^−1 for rabbits). […]

[5] = target: peripheral benzodiazepine receptor (Rattus norvegicus, UniProt P16257); assay: Radioligand binding selectivity panel (Eurofins Cerep); settings: read-out: inhibition of specific ligand binding
Procedure: as §1

[6] = target: noradrenaline transporter (Homo sapiens, UniProt P23975); assay: as above; settings: read-out: inhibition of specific ligand binding
Procedure: as §1

[7] = system: Na^+/K^+‐ATPase; assay: as above; settings: 10 μM
Procedure: as §1

[8] = target: T2, 5‐HT2B receptor; assay: as above; settings: read-out: inhibition of specific ligand binding
Procedure: as §1

[9] = system: ryanodine receptor; assay: as above; settings: 10 μM
Procedure: as §1

[10] = target: 5‐HT2A receptor (Homo sapiens, UniProt P28223); assay: as above; settings: read-out: inhibition of specific ligand binding
Procedure: as §1

T2 sequence (P41595 whole entry): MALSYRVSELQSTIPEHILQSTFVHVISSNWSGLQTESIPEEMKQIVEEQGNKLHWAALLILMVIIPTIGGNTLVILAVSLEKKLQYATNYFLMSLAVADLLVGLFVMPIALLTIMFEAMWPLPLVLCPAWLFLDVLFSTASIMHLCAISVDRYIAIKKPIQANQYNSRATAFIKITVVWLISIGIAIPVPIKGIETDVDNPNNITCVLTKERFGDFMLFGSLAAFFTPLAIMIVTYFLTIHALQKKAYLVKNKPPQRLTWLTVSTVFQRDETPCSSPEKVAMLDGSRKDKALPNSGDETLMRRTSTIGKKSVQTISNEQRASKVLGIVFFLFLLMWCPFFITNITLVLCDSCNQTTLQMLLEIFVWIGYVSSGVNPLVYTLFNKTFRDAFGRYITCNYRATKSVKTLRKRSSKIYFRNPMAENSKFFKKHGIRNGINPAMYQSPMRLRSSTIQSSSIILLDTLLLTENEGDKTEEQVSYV
T1 sequence (Q9WTR4 1-597): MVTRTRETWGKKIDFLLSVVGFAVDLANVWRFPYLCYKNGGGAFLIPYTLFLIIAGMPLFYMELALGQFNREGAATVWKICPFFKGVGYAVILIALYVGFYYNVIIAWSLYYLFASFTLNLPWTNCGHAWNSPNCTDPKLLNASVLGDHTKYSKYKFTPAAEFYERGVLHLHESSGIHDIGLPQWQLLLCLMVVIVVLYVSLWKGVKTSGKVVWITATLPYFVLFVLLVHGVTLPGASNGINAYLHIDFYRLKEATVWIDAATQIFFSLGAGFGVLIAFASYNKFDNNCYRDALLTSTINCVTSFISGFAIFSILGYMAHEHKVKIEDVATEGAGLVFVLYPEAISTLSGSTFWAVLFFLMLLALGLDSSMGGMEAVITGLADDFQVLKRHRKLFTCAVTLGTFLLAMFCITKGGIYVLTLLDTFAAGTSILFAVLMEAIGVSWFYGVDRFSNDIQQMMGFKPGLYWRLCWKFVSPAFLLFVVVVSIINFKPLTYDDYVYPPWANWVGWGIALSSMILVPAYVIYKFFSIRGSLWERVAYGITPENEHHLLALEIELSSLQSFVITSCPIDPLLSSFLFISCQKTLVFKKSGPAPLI
noradrenaline transporter (Homo sapiens, UniProt P23975), sequence (P23975 whole entry): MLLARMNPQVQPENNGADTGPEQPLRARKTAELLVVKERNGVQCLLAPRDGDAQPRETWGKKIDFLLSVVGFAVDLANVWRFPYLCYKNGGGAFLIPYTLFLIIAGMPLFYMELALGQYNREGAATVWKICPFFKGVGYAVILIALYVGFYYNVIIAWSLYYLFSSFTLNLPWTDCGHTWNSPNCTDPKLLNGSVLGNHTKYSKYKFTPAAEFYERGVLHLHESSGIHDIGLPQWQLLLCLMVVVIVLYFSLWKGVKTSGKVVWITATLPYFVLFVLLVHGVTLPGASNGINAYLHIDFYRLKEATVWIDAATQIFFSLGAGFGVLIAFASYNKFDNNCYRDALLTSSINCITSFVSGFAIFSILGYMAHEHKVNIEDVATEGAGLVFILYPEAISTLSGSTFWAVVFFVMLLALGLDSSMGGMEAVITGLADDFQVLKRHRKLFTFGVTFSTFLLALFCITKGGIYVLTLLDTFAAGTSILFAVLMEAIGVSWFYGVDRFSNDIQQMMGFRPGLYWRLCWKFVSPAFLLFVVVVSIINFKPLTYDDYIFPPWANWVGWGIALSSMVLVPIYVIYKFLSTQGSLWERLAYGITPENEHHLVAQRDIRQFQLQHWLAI
5‐HT2A receptor, sequence (P28223 whole entry): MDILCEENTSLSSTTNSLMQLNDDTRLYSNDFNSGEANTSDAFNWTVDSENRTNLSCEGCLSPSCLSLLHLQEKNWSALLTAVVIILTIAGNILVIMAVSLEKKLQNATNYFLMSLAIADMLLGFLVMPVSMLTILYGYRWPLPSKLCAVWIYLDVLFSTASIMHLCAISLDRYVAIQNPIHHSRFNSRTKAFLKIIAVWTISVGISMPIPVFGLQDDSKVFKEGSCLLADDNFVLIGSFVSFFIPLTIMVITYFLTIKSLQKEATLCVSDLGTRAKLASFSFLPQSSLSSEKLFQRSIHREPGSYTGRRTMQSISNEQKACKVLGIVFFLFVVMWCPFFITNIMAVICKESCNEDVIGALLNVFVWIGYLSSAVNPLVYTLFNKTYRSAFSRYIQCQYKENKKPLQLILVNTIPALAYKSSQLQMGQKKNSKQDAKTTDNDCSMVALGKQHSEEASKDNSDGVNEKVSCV

Nc1cccc(-c2ccc(CNc3ccc(F)cc3)o2)c1 [ORM‐11372]
hiPSC‐CM APD [1]: significant shortening | IC50 [2]: 1700 nM | agonist activity at 5‐HT2B receptors [3]: no agonist activity | inhibition at 10 µM ([3]; 10 μM, evoked by 10‐nM 5‐HT, read-out: inhibition of 5‐HT2B receptor‐mediated increase in intracellular calcium): 38% | HR [4]: did not have any effects | cardiac relaxation [4]: did not have any effects | systolic BP [4]: did not have any effects | increase in cardiac contractility (LV + dP/dt max) ([4]; infusion 833 μg·kg^−1·min^−1): 35 ± 8% | inhibition at 10 µM [5]: > 50% | inhibition at 10 µM [6]: > 50% | inhibition of specific ligand binding [7]: 11% | inhibition at 10 µM [8]: > 50% | inhibition of specific ligand binding [9]: 15% | inhibition at 10 µM [10]: > 50%
